The values below come from patent US7741346B2, “Angiogenesis inhibitor” (Santen Pharmaceutical Co., Ltd., priority 2001, dated 2010).

As a reminder, the melting point is the temperature of the solid-liquid transition.

SMILES strings stand for the structures.

`CCCCCN(CCC12CC3CC(CC(C3)C1)C2)C(=O)NCCc1ccc(O)cc1` returned a melting point of 96.3 to 99.4 °C. As to `CCCN(CCCC12CC3CC(CC(C3)C1)C2)C(=O)NCCCc1ccncc1.O=P(O)(O)O`, the melting point was in the range of 148 to 149 °C. For `Cl.O=C(NCc1ccncc1)N(CCC1CCCCC1)Cc1cccs1`, the melting point is 161.8 to 164.4 °C. Regarding `Cl.O=C(NCCCc1ccncc1)N(CCC12CC3CC(CC(C3)C1)C2)CCC12CC3CC(CC(C3)C1)C2`, the melting point lay within 120 to 122.5 °C. In turn, `CCCCCN(CCC12CC3CC(CC(C3)C1)C2)C(=O)CNCCc1ccncc1.Cl.Cl` gave a melting point of 133.7 to 137 °C. With `CC(C)CCN(CCC(C)C)C(=O)NCCCc1ccncc1.Cl`, the melting point was 120.5 to 131.7 °C. Consider `Cl.Cl.NN(CCC12CC3CC(CC(C3)C1)C2)C(=O)NCCCc1ccncc1`, for which the melting point was ~ 100 °C.

`CC(C)(C)OC(=O)NCCN(CCC12CC3CC(CC(C3)C1)C2)C(=O)NCCCc1cc[n+](Cc2ccccc2)cc1.[Br-]` displayed a melting point of 97 °C. The compound `Cl.O=C1CCN(CCC23CC4CC(CC(C4)C2)C3)C(=O)N1CCCc1ccncc1` showed a melting point of 177 to 178.5 °C.

Compound `Cl.O=C1CCN(CCC2CCCCC2)C(=O)N1Cc1ccncc1` showed a melting point of 64 to 74.5 °C. As for `Cl.O=C1CCN(CCCc2ccncc2)C(=O)N1CCC12CC3CC(CC(C3)C1)C2`, the melting point turned out to be 170 °C. The value for `CCCCCN(CCC12CC3CC(CC(C3)C1)C2)C(=O)NC[C@@H]1C[C@@H]1c1ccncc1` (relative stereo) [Compound No. 15-1, cis-1-[2-(1-adamantyl)ethyl]-1-pentyl-3-[2-(4-pyridyl)cyclopropylmethyl]urea] was 128 to 130 °C; that for `O=C(NCCCc1ccncc1)N1CCc2ccccc2C1` [Compound No. 1-5, N-[3-(4-Pyridyl)propyl]-1,2,3,4-tetrahydroisoquinoline-2-carboxamide] was 76 to 79 °C; that for `O=C(NCCCc1ccncc1)N1CCOCC1` [Compound No. 1-6, N-[3-(4-Pyridyl)propyl]-4-morpholinecarboxamide] was 94 to 98 °C.

The compound `CN(C)CCN(CCC12CC3CC(CC(C3)C1)C2)C(=O)NCCCc1ccncc1` [Compound No. 1-15, 1-[2-(1-Adamantyl)ethyl]-1-[2-(dimethylamino)ethyl]-3-[3-(4-pyridyl)propyl]urea] had a melting point of 104 to 106.5 °C. The value for `CCCN(CCC12CC3CC(CC(C3)C1)C2)C(=O)NCCCc1ccncc1` [Compound No. 1-16, 1-[2-(1-Adamantyl)ethyl]-1-propyl-3-[3-(4-pyridyl)propyl]urea] was 99 to 103 °C; that for `COCCN(CCC12CC3CC(CC(C3)C1)C2)C(=O)NCCCc1ccncc1` [Compound No. 1-18, 1-[2-(1-Adamantyl)ethyl]-1-(2-methoxyethyl)-3-[3-(4-pyridyl)propyl]urea] was 101.5 to 104.5 °C. On to `O=C(NCCCc1ccncc1)N(CCC12CC3CC(CC(C3)C1)C2)CC1CCCC1` [Compound No. 1-21, 1-[2-(1-Adamantyl)ethyl]-1-cyclopentylmethyl-3-[3-(4-pyridyl)propyl]urea], for which the melting point lay in the range of 155 to 158 °C. `O=C(NCCCc1ccncc1)N(CCC12CC3CC(CC(C3)C1)C2)CC1CC1` [Compound No. 1-22, 1-[2-(1-Adamantyl)ethyl]-1-cyclopropylmethyl-3-[3-(4-pyridyl)propyl]urea] came in with a melting point of 123 to 125 °C. Regarding `C=CCN(CCC12CC3CC(CC(C3)C1)C2)C(=O)NCCCc1ccncc1` [Compound No. 1-23, 1-[2-(1-Adamantyl)ethyl]-1-allyl-3-[3-(4-pyridyl)propyl]urea], the melting point lay within 99 to 102 °C.

Compound `O=C(NCCCc1ccncc1)N(CCC12CC3CC(CC(C3)C1)C2)Cc1cccs1` [Compound No. 1-27, 1-[2-(1-Adamantyl)ethyl]-3-[3-(4-pyridyl)propyl]-1-(2-thienyl)methylurea] returned a melting point of 142.5 to 144.5 °C. As for `CCCCCCN(CCC12CC3CC(CC(C3)C1)C2)C(=O)NCCCc1ccncc1` [Compound No. 1-29, 1-[2-(1-Adamantyl)ethyl]-1-hexyl-3-[3-(4-pyridyl)propyl]urea], the melting point lay in the range of 119.5 to 121.5 °C. With `CC(C)=CCN(CCC12CC3CC(CC(C3)C1)C2)C(=O)NCCCc1ccncc1` [Compound No. 1-31, 1-[2-(1-Adamantyl)ethyl]-1-(3-methyl-2-butenyl)-3-[3-(4-pyridyl)propyl]urea], the melting point was 93 to 96 °C. The compound `CCCCCCCCCCN(CCC12CC3CC(CC(C3)C1)C2)C(=O)NCCCc1ccncc1` [Compound No. 1-32, 1-[2-(1-Adamantyl)ethyl]-1-decyl-3-[3-(4-pyridyl)propyl]urea] came in with a melting point of 75 to 76 °C. `C=C(C)CN(CCC12CC3CC(CC(C3)C1)C2)C(=O)NCCCc1ccncc1` [Compound No. 1-33, 1-[2-(1-Adamantyl)ethyl]-1-(2-methyl-2-propenyl)-3-[3-(4-pyridyl)propyl]urea] gave a melting point of 108 to 109 °C. The value for `O=C(NCCCc1ccncc1)N(CC=Cc1ccccc1)CCC12CC3CC(CC(C3)C1)C2` [Compound No. 1-34, 1-[2-(1-Adamantyl)ethyl]-1-cinnamyl-3-[3-(4-pyridyl)propyl]urea] was 130 to 134.5 °C; that for `CN(CCC12CC3CC(CC(C3)C1)C2)C(=O)NCCCc1ccncc1` [Compound No. 1-40, 1-[2-(1-Adamantyl)ethyl]-1-methyl-3-[3-(4-pyridyl)propyl)urea] was 99 to 109 °C; that for `CCN(CCC12CC3CC(CC(C3)C1)C2)C(=O)NCCCc1ccncc1` [Compound No. 1-41, 1-[2-(1-Adamantyl)ethyl]-1-ethyl-3-[3-(4-pyridyl)propyl]urea] was 106 to 115 °C. Compound `O=C(NCCCc1ccncc1)N(CCC12CC3CC(CC(C3)C1)C2)Cc1ccco1` [Compound No. 1-42, 1-[2-(1-Adamantyl)ethyl]-1-furfuryl-3-[3-(4-pyridyl)propyl]urea] returned a melting point of 128 to 130 °C. With `O=C(NCCCc1ccncc1)N(CCC12CC3CC(CC(C3)C1)C2)Cc1ccccc1` [Compound No. 1-43, 1-[2-(1-Adamantyl)ethyl]-1-benzyl-3-[3-(4-pyridyl)propyl]urea], the melting point is 130.5 to 135 °C. The compound `CCCCCN(CCC1CCCCC1)C(=O)NCc1ccncc1` [Compound No. 1-52, 1-(2-Cyclohexylethyl)-1-pentyl-3-(4-pyridyl)methylurea] returned a melting point of 64.7 to 65.8 °C. Consider `O=C(NCCCc1ccncc1)N(CCC12CC3CC(CC(C3)C1)C2)CCC12CC3CC(CC(C3)C1)C2` [Compound No. 1-56, 1,1-Bis[2-(1-adamantyl)ethyl]-3-[3-(4-pyridyl)propyl]urea], for which the melting point was 80 °C. In turn, `CCCCN(CCC12CC3CC(CC(C3)C1)C2)C(=O)NCCCc1ccncc1` [Compound No. 1-57, 1-[2-(1-Adamantyl)ethyl]-1-butyl-3-[3-(4-pyridyl)propyl]urea] registered a melting point of 109.5 to 118 °C. `O=C(N(CCCc1ccncc1)Cc1ccccc1)N(CCCc1ccccc1)C1CCCCC1` [Compound No. 1-60, 1-Cyclohexyl(phenyl)methyl-1-(3-phenylpropyl)-3-[3-(4-pyridyl)propyl]urea]: the melting point is 107 to 112 °C.

`O=C(NCCCc1ccncc1)N(C1CCCCC1)C1CCCCC1` [Compound No. 1-61, 1,1-Dicyclohexyl-3-[3-(4-pyridyl)propyl]urea] displayed a melting point of 143 to 145.5 °C. Turning to `CCCCCNC(=O)N(CCCc1ccncc1)CCC12CC3CC(CC(C3)C1)C2` [Compound No. 1-66, 1-[2-(1-Adamantyl)ethyl]-3-pentyl-1-[3-(4-pyridyl)propyl]urea], the melting point lay in the range of 47 to 50 °C. The value for `CC(C)N(CCC12CC3CC(CC(C3)C1)C2)C(=O)NCCCc1ccncc1` [Compound No. 1-68, 1-[2-(1-Adamantyl)ethyl]-1-isopropyl-3-[3-(4-pyridyl)propyl]urea] was 132 to 134 °C; that for `CC(C)(C)OC(=O)CCN(CCC12CC3CC(CC(C3)C1)C2)C(=O)NCCCc1ccncc1` [Compound No. 1-69, 1-[2-(1-Adamantyl)ethyl]-1-[2-(t-butoxycarbonyl)ethyl]-3-[3-(4-pyridyl)propyl]urea] was 124.5 to 127 °C. `O=C(NCCCc1ccncc1)N(CCC12CC3CC(CC(C3)C1)C2)C1CCCC1` [Compound No. 1-70, 1-[2-(1-Adamantyl)ethyl]-1-cyclopentyl-3-[3-(4-pyridyl)propyl]urea] gave a melting point of 135.5 to 137.5 °C. The value for `CCCCCN(CCC12CC3CC(CC(C3)C1)C2)C(=O)NCc1ccccn1` [Compound No. 1-72, 1-[2-(1-Adamantyl)ethyl]-1-pentyl-3-(2-pyridyl)methylurea] was 87.5 to 92 °C. Take `CCCCCN(CCC12CC3CC(CC(C3)C1)C2)C(=O)NCc1cccnc1` [Compound No. 1-73, 1-[2-(1-Adamantyl)ethyl]-1-pentyl-3-(3-pyridyl)methylurea]: the melting point was 88.5 to 101.5 °C. As for `CCCCCN(CCC12CC3CC(CC(C3)C1)C2)C(=O)NCc1ccncc1` [Compound No. 1-74, 1-[2-(1-Adamantyl)ethyl]-1-pentyl-3-(4-pyridyl)methylurea], the figure is 96.5 to 108 °C. `CCCCCN(CCC12CC3CC(CC(C3)C1)C2)C(=O)NCCc1ccccn1` [Compound No. 1-75, 1-[2-(1-Adamantyl)ethyl]-1-pentyl-3-[2-(2-pyridyl)ethyl]urea] registered a melting point of 80 to 100 °C.

As for `CCCCCN(CCC12CC3CC(CC(C3)C1)C2)C(=O)NCCc1cccnc1` [Compound No. 1-76, 1-[2-(1-Adamantyl)ethyl]-1-pentyl-3-[2-(3-pyridyl)ethyl]urea], the melting point is 112.5 to 114.5 °C. For the compound `CCCCCN(CCC12CC3CC(CC(C3)C1)C2)C(=O)NCCc1ccncc1` [Compound No. 1-80, 1-[2-(1-Adamantyl)ethyl]-1-pentyl-3-[2-(4-pyridyl)ethyl]urea], the melting point lay in the range of 107 to 118 °C. In turn, `CCCCCN(CCC12CC3CC(CC(C3)C1)C2)C(=O)NCCCc1ccccn1` [Compound No. 1-83, 1-[2-(1-Adamantyl)ethyl]-1-pentyl-3-[3-(2-pyridyl)propyl]urea] registered a melting point of 84.4 to 85.7 °C.
